Data on two compounds can be found in publication PMC12473689, “Drug Metabolism and Pharmacokinetics of Oxazolo[4,5-c]quinoline Analogs as Novel Interleukin-33 Inhibitors” (Pharmaceutics, 2025).

This series can be described thus: Pharmacokinetic study after single IV and PO dose. Format: in vivo. The settings on record: male ICR mice; for bioavailability: oral, 10 mg/kg; for half-life: noncompartmental analysis. How it is done:
All animal procedures were reviewed and approved by the Institutional Animal Care and Use Committee (IACUC) of Korea University (Approval No: KUIACUC-2020-0031) and conducted in compliance with the IACUC guidelines. […] In accordance with an approved protocol, mice were euthanized by CO2 asphyxiation at the end of the study. For intravenous (IV) administration, KB-1517 was dissolved in a vehicle of dimethylacetamide/Tween 80/water (5/5/90, v/v/v) at 1 mg/mL. KB-1518 (as TFA salt) was dissolved in DMSO/saline (10/90, v/v) at 1 mg/mL. Mice (n = 4 per group per compound) received a single IV dose of 5 mg/kg via the tail vein (dose volume: 5 mL/kg). For oral (PO) administration, the same formulations were used, and mice (n = 4 per group per compound) received a single dose of 10 mg/kg via oral gavage (dose volume: 10 mL/kg). For intraperitoneal (IP) administration, a suspension of KB-1517 or KB-1518 (0.4 mg/mL in PBS) was prepared by diluting a DMSO stock solution (13 mg/mL). Mice (n = 4 per compound) received a single IP injection of 0.2 mg per animal (dose volume: 500 µL). Serial blood samples (approximately 40 µL) were collected via the saphenous vein into Microvette® 100LH heparinized capillary tubes at selected time points. […] Plasma samples were stored in freezer until LC-MS/MS analysis. Protein precipitation was performed on 15 µL aliquots of plasma samples by adding three volumes of acetonitrile containing diclofenac as an analytical internal standard. The mixture was vortexed thoroughly and centrifuged at 3000× g for 30 min at 4 °C. A 50 µL aliquot of the resulting supernatant was transferred to a 96-well plate and mixed with 50 µL of water. The prepared solutions were analyzed using an Agilent 6460 QQQ LC-MS/MS system (Agilent Technologies Korea Ltd., Seoul, Republic of Korea). Quantitative analysis was performed using an Agilent 1290 Infinity Series HPLC system (Agilent Technologies Korea Ltd., Seoul, Republic of Korea) coupled to an Agilent 6460 QQQ mass spectrometer system (Agilent Technologies Korea Ltd., Seoul, Republic of Korea) with a dual AJS ESI ion source operating in positive ion mode. For chromatographic separation, an Agilent Eclipse Plus C18 column (2.1 × 100 mm, 3.5 µm) (Agilent Technologies Korea Ltd., Seoul, Republic of Korea) protected by a Phenomenex SecurityGuard C18 guard column was used. The mobile phase consisted of (A) 0.1% formic acid in water and (B) 0.1% formic acid in acetonitrile. […] The flow rate was 0.45 mL/min, the injection volume was 3 µL, and the column temperature was 40 °C. The ion source parameters for the mass spectrometer were set as follows: gas temperature 325 °C, gas flow 12 L/min, nebulizer pressure 35 psi, sheath gas temperature 350 °C, and sheath gas flow 10 L/min. Multiple Reaction Monitoring (MRM) transitions were used for quantification: KB-1517: m/z 402 → 72 (CE 10 V); KB-1518: m/z 402 → 72 (CE 5 V); Diclofenac (IS): m/z 296 → 215 (CE 30 V); […] Ranitidine: m/z 315 → 102 (CE 33 V); Itraconazole: m/z 705 → 395 (CE 40 V); […] Data acquisition and processing were performed using Agilent MassHunter Quantitative Analysis software (ver. B.05.00). Calibration curves were constructed using weighted linear regression. Noncompartmental analysis (NCA) was performed using PKSolver to determine pharmacokinetic parameters from the plasma concentration-time data. Parameters included: maximum plasma concentration (Cmax), time to reach Cmax (tmax), terminal elimination half-life (t1/2), area under the plasma concentration-time curve from time zero to the last measurable concentration (AUClast), area under the plasma concentration-time curve extrapolated to infinity (AUCinf), total body clearance (CL), and volume of distribution at steady state (Vss). […] Due to the anomalous profile of KB-1517, AUClast was used for its F calculation, and some parameters (t½, CL, Vss for IV; AUCinf for PO) could not be reliably determined (ND). […]

Where [1] appears, read: mouse, plasma, single IV dose 5 mg/kg, mean ± SD (n = 4).
The mark [2] stands for this setting: mouse, plasma, single PO dose 10 mg/kg, mean ± SD (n = 4).

Where two headings read alike, the source gives them in different places.

As to `CN(C)CCn1c(=O)c2nc(-c3ccc(C(F)(F)F)cc3)oc2c2ccccc21` [KB-1517, 5-(2-(dimethylamino)ethyl)-2-(4-(trifluoromethyl)phenyl)oxazolo[4,5-c]quinolin-4(5H)-one], the “F (apparent oral bioavailability)” value (PO 10 mg/kg vs IV 5 mg/kg, calculated using AUClast) is reported as 119.3 ± 20.1%. Further, the bioavailability (male, ICR, mouse, plasma, PO 10 mg/kg vs IV 5 mg/kg, calculated using AUClast, read-out: F (apparent oral bioavailability)) is > 100%. This compound registered an AUC(0-t) under setting [1] of 1830 ± 348 ng·h/mL. Under setting [2], the AUC(0-t) stood at 4370 ± 738 ng·h/mL, the maximum concentration (Cmax) turned out to be 289 ± 34.1 ng/mL and the time of peak concentration (Tmax) was found to be 5.6 ± 3.5 h.
Turning to `CN(C)CCOc1nc2ccccc2c2oc(-c3ccc(C(F)(F)F)cc3)nc12` [KB-1518, N,N-dimethyl-2-((2-(4-(trifluoromethyl)phenyl)oxazolo[4,5-c]quinolin-4-yl)oxy)ethan-1-amine], the “F (oral bioavailability)” value (PO 10 mg/kg vs IV 5 mg/kg, calculated from AUCinf) is on record as 13.6 ± 3.4%. Also, the CL (single IV dose 5 mg/kg, mean ± SD (n = 4), 5 mg/kg) worked out at 25 ± 3.3 mL/min/kg. Also, where the note is “male, ICR, mouse, plasma, iv, 5 mg/kg, single IV dose 5 mg/kg, mean ± SD (n = 4)”, the clearance was ~25 mL/min/kg. For the same compound, the Vd (male, ICR, mouse, plasma, iv, 5 mg/kg, single IV dose 5 mg/kg, mean ± SD (n = 4), read-out: Vss) was ~4.6 L/kg. Besides, where the note is “male, ICR, mouse, plasma, PO 10 mg/kg vs IV 5 mg/kg, calculated from AUCinf, read-out: F (oral bioavailability)”, the bioavailability is ~14%. Moreover, under setting [1], the AUC(0-inf) turned out to be 3460 ± 476 ng·h/mL and the AUC(0-t) was found to be 3460 ± 474 ng·h/mL. Moreover, under setting [2], the total exposure AUC(0-inf) was 942 ± 234 ng·h/mL, the AUC(0-t) was determined as 868 ± 267 ng·h/mL, the Cmax was found to be 157 ± 104 ng/mL and the Tmax came out at 1.6 ± 0.8 h. Under “mouse, single IV dose 5 mg/kg, plasma, mean ± SD (n = 4)”, this compound showed a half-life of 2.6 ± 0.3 h. Moreover, the half-life (mouse, single PO dose 10 mg/kg, plasma, mean ± SD (n = 4)) is 6.2 ± 1.9 h.
